Experimental data reported in ChEMBL document CHEMBL4000186, “Design and synthesis of novel 2-substituted 11-keto-boswellic acid heterocyclic derivatives as anti-prostate cancer agents with Pin1 inhibition ability” (Eur J Med Chem, 2017).

What was measured:
PC-3 [1] = assay: Induction of apoptosis in human PC3 cells assessed as downregulation of Mcl-1 expression measured after 24 hrs by Western blot method; type: functional, cell-based
PC-3 [2] = assay: Cell cycle arrest in human PC3 cells assessed as accumulation at G0/G1 phase at 5 uM after 12 hrs by propidium iodide staining based flow cytometry (reference value: 65.6 %); type: functional
PC-3 [3] = assay: Induction of apoptosis in human PC3 cells assessed as decrease in pro-caspase 8 level measured after 24 hrs by Western blot method; type: functional, cell-based
PC-3 [4] = assay: Induction of apoptosis in human PC3 cells assessed as decrease in pro-caspase 9 level measured after 24 hrs by Western blot method; type: functional, cell-based
PC-3 [5] = assay: Cell cycle arrest in human PC3 cells assessed as accumulation at sub G1 phase at 2.5 uM after 24 hrs by propidium iodide staining based flow cytometry (reference value: 1.9 %); type: functional
PC-3 [6] = assay: Anti-proliferative activity against human PC3 cells measured after 96 hrs by MTT assay; type: functional; settings: PC-3, 96 h
PC-3 [7] = assay: Induction of apoptosis in human PC3 cells assessed as induction of NOXA expression measured after 24 hrs by Western blot method; type: functional, cell-based
PC-3 [8] = assay: Cell cycle arrest in human PC3 cells assessed as accumulation at sub G1 phase at 1 uM after 12 hrs by propidium iodide staining based flow cytometry (reference value: 1.6 %); type: functional
PC-3 [9] = assay: Cell cycle arrest in human PC3 cells assessed as accumulation at sub G1 phase at 5 uM after 24 hrs by propidium iodide staining based flow cytometry (reference value: 1.9 %); type: functional
PC-3 [10] = assay: Cell cycle arrest in human PC3 cells assessed as accumulation at sub G1 phase at 5 uM after 12 hrs by propidium iodide staining based flow cytometry (reference value: 1.6 %); type: functional
PC-3 [11] = assay: Cell cycle arrest in human PC3 cells assessed as accumulation at G0/G1 phase at 5 uM after 24 hrs by propidium iodide staining based flow cytometry (reference value: 63.9 %); type: functional
PC-3 [12] = assay: Cell cycle arrest in human PC3 cells assessed as accumulation at G0/G1 phase at 1 uM after 24 hrs by propidium iodide staining based flow cytometry (reference value: 63.9 %); type: functional
PC-3 [13] = assay: Induction of apoptosis in human PC3 cells assessed as downregulation of c-FLIP expression measured after 24 hrs by Western blot method; type: functional, cell-based
[14] = target: T1, Peptidyl-prolyl cis-trans isomerase NIMA-interacting 1 (Homo sapiens, UniProt Q13526); assay: Inhibition of Pin1 in human PC3 cells assessed as downregulation of cyclin D1 expression measured after 24 hrs by Western blot method; type: cell-based
PC-3 [15] = assay: Cell cycle arrest in human PC3 cells assessed as accumulation at G2/M phase at 5 uM after 24 hrs by propidium iodide staining based flow cytometry (reference value: 22.7 %); type: functional
PC-3 [16] = assay: Cell cycle arrest in human PC3 cells assessed as accumulation at G2/M phase at 1 uM after 24 hrs by propidium iodide staining based flow cytometry (reference value: 22.7 %); type: functional
PC-3 [17] = assay: Cell cycle arrest in human PC3 cells assessed as accumulation at G2/M phase at 5 uM after 12 hrs by propidium iodide staining based flow cytometry (reference value: 22.4 %); type: functional
[18] = target: T1, Peptidyl-prolyl cis-trans isomerase NIMA-interacting 1; assay: Inhibition of Pin1 (unknown origin) using Suc-Ala-Glu-cis-Pro-Phe-4-nitroanilide as substrate preincubated for 30 mins followed by substrate addition measured for 90 secs by protease-enzyme coupled assay
PC-3 [19] = assay: Cell cycle arrest in human PC3 cells assessed as accumulation at G0/G1 phase at 2.5 uM after 24 hrs by propidium iodide staining based flow cytometry (reference value: 63.9 %); type: functional
LNCaP = assay: Anti-proliferative activity against human LNCAP cells measured after 96 hrs by MTT assay; type: functional
PC-3 [20] = assay: Cell cycle arrest in human PC3 cells assessed as accumulation at G2/M phase at 2.5 uM after 12 hrs by propidium iodide staining based flow cytometry (reference value: 22.4 %); type: functional
PC-3 [21] = assay: Cell cycle arrest in human PC3 cells assessed as accumulation at sub G1 phase at 1 uM after 24 hrs by propidium iodide staining based flow cytometry (reference value: 1.9 %); type: functional
PC-3 [22] = assay: Induction of apoptosis in human PC3 cells assessed as decrease in pro-caspase 3 level measured after 24 hrs by Western blot method; type: functional, cell-based
PC-3 [23] = assay: Cell cycle arrest in human PC3 cells assessed as accumulation at G2/M phase at 2.5 uM after 24 hrs by propidium iodide staining based flow cytometry (reference value: 22.7 %); type: functional
PC-3 [24] = assay: Cell cycle arrest in human PC3 cells assessed as accumulation at G0/G1 phase at 2.5 uM after 12 hrs by propidium iodide staining based flow cytometry (reference value: 65.6 %); type: functional
PC-3 [25] = assay: Cell cycle arrest in human PC3 cells assessed as accumulation at sub G1 phase at 2.5 uM after 12 hrs by propidium iodide staining based flow cytometry (reference value: 1.6 %); type: functional
PC-3 [26] = assay: Cell cycle arrest in human PC3 cells assessed as accumulation at G2/M phase at 1 uM after 12 hrs by propidium iodide staining based flow cytometry (reference value: 22.4 %); type: functional
PC-3 [27] = assay: Cell cycle arrest in human PC3 cells assessed as accumulation at G0/G1 phase at 1 uM after 12 hrs by propidium iodide staining based flow cytometry (reference value: 65.6 %); type: functional

T1 sequence (Q13526 whole entry): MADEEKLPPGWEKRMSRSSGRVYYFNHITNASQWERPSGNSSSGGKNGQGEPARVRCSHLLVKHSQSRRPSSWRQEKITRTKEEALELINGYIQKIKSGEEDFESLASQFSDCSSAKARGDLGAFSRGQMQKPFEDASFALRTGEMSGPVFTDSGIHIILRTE

C[C@H]1[C@H](C)CC[C@]2(C)CC[C@]3(C)C(=CC(=O)[C@@H]4[C@@]5(C)C=C(C#N)C(=O)[C@](C)(C(=O)N6CCNCC6)[C@@H]5CC[C@]43C)[C@H]12
Activity (PC-3 [1]): Dose-dependent effect
Activity (PC-3 [2]): 47.8%
Activity (PC-3 [3]): Dose-dependent effect
Activity (PC-3 [4]): Dose-dependent effect
Activity (PC-3 [5]): 34.6%
GI50 (PC-3 [6]): 40 nM
Activity (PC-3 [7]): Dose-dependent effect
Activity (PC-3 [8]): 2.7%
Activity (PC-3 [9]): 88.1%
Activity (PC-3 [10]): 19.5%
Activity (PC-3 [11]): 3.7%
Activity (PC-3 [12]): 45.4%
Activity (PC-3 [13]): Dose-dependent effect
inhibition [14]: Dose-dependent effect
Activity (PC-3 [15]): 1.8%
Activity (PC-3 [16]): 29.7%
Activity (PC-3 [17]): 22.8%
IC50 [18]: 3570 nM
Activity (PC-3 [19]): 33.7%
GI50 (LNCaP): 270 nM
Activity (PC-3 [20]): 27.6%
Activity (PC-3 [21]): 8%
Activity (PC-3 [22]): Dose-dependent effect
Activity (PC-3 [23]): 22%
Activity (PC-3 [24]): 52.2%
Activity (PC-3 [25]): 10.2%
Activity (PC-3 [26]): 26.1%
Activity (PC-3 [27]): 58.5%
